Experimental data reported in patent US8389573B2, “Glycyrrhetinic acid derivatives” (Wellington Laboratories Inc., priority 2006, dated 2013).

Tests used:
SW480 cells = assay: Western blot analysis in SW480 cells; assay type: cell-based, human
Experimental: SW-480 and HT-29 (3×10^5) cells were seeded in six-well plates in DMEM/Ham's F-12 media containing 2.5% charcoal-stripped FBS for 24 h and then treated with either the vehicle (DMSO) or the indicated compounds. Whole-cell lysates were obtained using high-salt buffer [50 mM HEPES, 500 mM NaCl, 1.5 mM MgCl2, 1 mM EGTA, 10% glycerol, and 1% Triton X-100, pH 7.5, and 5 μl/ml Protease Inhibitor Cocktail (Sigma-Aldrich)]. Protein samples were incubated at 100° C. for 2 min, separated on 10% SDS-PAGE at 120 V for 3 to 4 h in 1× running buffer (25 mM Tris-base, 192 mM glycine, and 0.1% SDS, pH 8.3), and transferred to polyvinylidene difluoride membrane (PVDF; Bio-Rad, Hercules, Calif.) at […] for 16 h at 4° C. in 1× transfer buffer (48 mM Tris-HCl, 39 mM glycine, and 0.025% SDS). The PVDF membrane was blocked in 5% TBST-Blotto (10 mM Tris-HCl, 150 mM NaCl, pH 8.0, 0.05% Triton X-100, and 5% nonfat dry milk) with gentle shaking for 30 min and was incubated in fresh 5% TBST-Blotto with 1:1000 (for caveolin-1, p27, p21, cyclin D1, Grp78), 1:500 (for KLF4, NAG-1), 1:250 (for PARP), and 1:5000 (for β-actin) primary antibody overnight with gentle shaking at 4° C. After washing with TBST for 10 min, the PVDF membrane was incubated with secondary antibody (1:5000) in 5% TBST-Blotto for 90 min. The membrane was washed with TBST for 10 min, incubated with 10 ml of chemiluminescence substrate (PerkinElmer) for 1.0 min, and exposed to Kodak X-OMAT AR autoradiography film (Eastman Kodak, Rochester, N.Y.).

PPARγ [1] = conditions: SW480 cells, previous studies (22); cited from earlier work
SW480 colon cancer cells = assay: Cell proliferation assay in SW480 cells; assay type: cell-based; conditions: Homo sapiens, read-out: IC50, growth inhibition / cell proliferation
Experimental: (§1) Human colon carcinoma cell lines SW480 and HT29 were provided by Dr. Stan Hamilton, M.D. Anderson Cancer Center (Houston, Tex.); SW-480 and HT-29 cells were maintained in Dulbecco's modified Eagle's medium nutrient mixture with Ham's F-12 (DMEM/Ham's F-12; Sigma-Aldrich, St. Louis, Mo.) with phenol red supplemented with 0.22% sodium bicarbonate, 0.011% sodium pyruvate, and 5% fetal bovine serum and 10 ml/l 100× antibiotic antimycotic solution (Sigma-Aldrich). Cells were maintained at 37° C. in the presence of 5% CO2.
(§2) SW480 and HT 29 Cells (2×10^4) were plated in 12-well plates, and media were replaced the next day with DMEM/Ham's F-12 media containing 2.5% charcoal-stripped FBS and either vehicle (DMSO) or the indicated ligand and dissolved in DMSO. Fresh media and compounds were added every 48 h. Cells were counted at the indicated times using a Coulter Z1 cell counter. Each experiment was done in triplicate, and results are expressed as means±S.E. for each determination

[2] = tested on: Panc28 pancreatic cancer cells; assay: Growth inhibition in Panc28 pancreatic cancer cells; assay type: cell-based; conditions: Pancreatic cancer cell
PPARγ [3] = assay: PPARγ-GAL4/pGAL4 transfection and luciferase assay in HT-29 cells; assay type: cell-based
Experimental: (§3) The Gal4 reporter containing 5× Gal4 response elements (pGal4) was kindly provided by Dr. Marty Mayo (University of North Carolina, Chapel Hill, N.C.). Gal4 DBD-PPARγ construct (gPPARγ) was a gift of Dr. Jennifer L. Oberfield (GlaxoSmithKline Research and Development, Research Triangle Park, N.C.). PPRE3-luc construct contains three tandem PPREs with a minimal TATA sequence in pGL2.
(§4) Colon Cancer cell lines SW480 and HT29 (1×10^5 cells/well) were plated in 12-well plates in DMEM/Ham's F-12 media supplemented with 2.5% charcoal-stripped FBS. After 16 h, various amounts of DNA [i.e., Gal4Luc (0.4 μg), β-Gal (0.04 μg), Gal4PPAR and PPRE3-Luc (0.04 μg)] were transfected using LipofectAMINE™ reagent (Invitrogen) following the manufacturer's protocol. Five hours after transfection, the transfection mix was replaced with complete media containing either vehicle (DMSO) or the indicated ligand for 20 to 22 h. Cells were then lysed with 100 μl of 1× reporter lysis buffer, and 30 μl of cell extract was used for luciferase and […] assays. A LumiCount™ luminometer (PerkinElmer Life and Analytical Sciences) was used to quantitate luciferase and β-Gal activities, and the luciferase activities were normalized to β-Gal activity. Results are expressed as means±S.E. for at least three replicate determinations for each treatment group

PPARγ [4] = assay: PPARγ-GAL4/pGAL4 transfection and luciferase assay in SW480 cells; assay type: cell-based; conditions: for PPARγ transactivation: up to 30 μM
Experimental: as §3, §4

PPARγ [5] = target: T1, PPARγ (Homo sapiens, UniProt P37231); assay: PPRE3-Luc transfection and luciferase assay in SW480 cells; assay type: cell-based
T1 construct: endogenous in cells; host or cells: SW480 colon cancer cells
T1 sequence (P37231 1-505): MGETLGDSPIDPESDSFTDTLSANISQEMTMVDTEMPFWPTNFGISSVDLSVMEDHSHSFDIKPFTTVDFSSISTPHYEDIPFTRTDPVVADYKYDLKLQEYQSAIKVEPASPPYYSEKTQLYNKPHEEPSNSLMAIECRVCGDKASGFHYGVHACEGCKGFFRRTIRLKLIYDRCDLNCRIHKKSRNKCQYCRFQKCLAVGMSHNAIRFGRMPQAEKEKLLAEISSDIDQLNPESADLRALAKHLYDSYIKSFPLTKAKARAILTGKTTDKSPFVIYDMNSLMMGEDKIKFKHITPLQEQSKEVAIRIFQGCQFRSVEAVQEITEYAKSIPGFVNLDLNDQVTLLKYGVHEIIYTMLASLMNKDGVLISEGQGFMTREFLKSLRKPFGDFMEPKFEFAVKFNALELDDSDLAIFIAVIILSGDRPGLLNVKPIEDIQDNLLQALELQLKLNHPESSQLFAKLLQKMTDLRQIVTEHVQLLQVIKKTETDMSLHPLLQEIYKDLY
Experimental: as §3, §4

HT-29 colon cancer cells = assay: Cell proliferation assay in HT-29 cells; assay type: cell-based; conditions: Homo sapiens, read-out: IC50, growth inhibition / cell proliferation
Experimental: as §1, §2

[6] = tested on: LNCaP human prostate carcinoma cells; assay: Cell proliferation assay in LNCaP cells; assay type: cell-based; conditions: 96 hr, read-out: IC50, inhibition of LNCaP cell growth
Experimental: Cell lines: LNCaP human prostate carcinoma cells were obtained from American Type Culture Collection (Manassas, Va.). Fetal bovine serum was obtained from JRH Biosciences, Lenexa, Kans. LNCaP cells were maintained in RPMI 1640 (Sigma Chemical, St. Louis, Mo.) supplemented with 0.22% sodium bicarbonate, 0.011% sodium pyruvate, 0.45% glucose, 0.24% HEPES, 10% FBS, and 10 mL/L of 100× antibiotic/antimycotic solution (Sigma). Cells were maintained at 37° C. in the presence of 5% CO2.
Cell Proliferation and DNA Fragmentation Assays: LNCaP prostate cancer cells (2×10^4 per well) were added to 12-well plates and allowed to attach for 24 hr. The medium was then changed to DMEM/Ham's F-12 media containing 2.5% charcoal-stripped FBS, and either vehicle (DMSO) or the indicated C-DIMs were added. Fresh medium and indicated compounds were added every 48 hr, and cells were then trypsinized and counted after 2, 4, and 6 days using a Coulter Z1 cell counter (Beckman Coulter, Fullerton, Calif.). Each experiment was done in triplicate, and results are expressed as means±S.E. for each set of three experiments. The DNA fragmentation assay was performed using a BioVision Apoptotic DNA ladder extraction kit (BioVision, Mountain View, Calif.) according to the manufacturer's protocol.

PPARγ [7] = assay: PPARγ-GAL4/GAL4-Luc or PPRE3-Luc transactivation in LNCaP cells; assay type: cell-based; conditions: 1-5 μM
Source text: Transfections: The Gal4 reporter construct containing 5× Gal4 response elements (pGal4) was kindly provided by Dr. Marty Mayo (University of North Carolina, Chapel Hill, N.C.). The Gal4 DBD-PPARγ construct was a gift of Dr. Jennifer L. Oberfield (Glaxo Wellcome Research and Development, Research Triangle Park, N.C.). The PPRE-luc construct contains three tandem PPREs with a minimal TATA sequence linked to the luciferase gene in pGL2. The AR-luc construct containing the −5400 to +580 region of the androgen receptor promoter was provided by Dr. Donald J. Tindall (Mayo Clinic, Rochester, Minn.), and the PSA-luc construct containing the 5.8-kilobase region of the PSA promoter was provided by Dr. Hong-Wu Cheng (University of California, Davis, Calif.). LNCaP cells (1×10^5) were seeded in 12-well plates in DMEM/Ham's F-12 media supplemented with 2.5% charcoal-stripped FBS and grown overnight. Transient transfections were performed using Lipofectamine reagent (Invitrogen) according to the protocol provided by the manufacturer. Transfection studies were performed using 0.4 μg of Gal4Luc, 0.04 μg of β-galactosidase, 0.04 μg of Gal4 DBD-PPARγ, 0.4 μg of AR-luc, and 0.3 μg of PSA-luc. Six hr after transfection, the transfection mix was replaced with complete media containing either vehicle (DMSO) or the indicated ligand for 20 to 22 hr. Cells were then lysed with 100 μl of 1× reporter lysis buffer, and 30 μl of cell extract was used for luciferase and β-galactosidase assays. A Lumicount luminometer (PerkinElmer Life and Analytical Sciences) was used to quantify luciferase and β-galactosidase activities, and the luciferase activities were normalized to β-galactosidase activity.

Compound | IC50 (SW480 colon cancer cells) [µM] | PPARγ transactivation (GAL4-PPARγ/GAL4-Luc) (PPARγ [3]) | IC50 (HT-29 colon cancer cells) [µM] | melting point [°C] | PPARγ transactivation (PPARγ [4]) | IC50 [6] [µM] | PPARγ-dependent transactivation (luciferase activity) (PPARγ [7]) | other results
CC1(C)CC[C@]2(C(=O)O)CC[C@]3(C)[C@H](C(=O)C=C4[C@@]5(C)C=C(C#N)C(=O)C(C)(C)[C@@H]5CC[C@]43C)[C@@H]2C1 [CDDO, 2-cyano-3,12-dioxo-oleana-1, 9(11)-diene-28-oic acid, reference compound] | – | – | – | – | – | – | – | caveolin-1 protein expression (SW480 cells; SW480, treatment for 3 days): induce caveolin-1 protein; luciferase activity with GAL4-PPARγ/GAL4-Luc (PPARγ [1]): induced luciferase activity
COC(=O)[C@@]1(C)CC[C@]2(C)CC[C@]3(C)C(=CC(=O)[C@@H]4[C@@]5(C)C=C(C#N)C(=O)C(C)(C)[C@@H]5CC[C@]43C)[C@H]2C1 [α-CDODA-Me, Methyl 2-cyano-3,11-dioxo-18α-oleana-1,12-dien-30-oate] | 0.5 | – | – | – | – | – | – | IC50 [2]: 0.5 to 1 µM
CC1(C)C(=O)C(C#N)=C[C@]2(C)[C@H]3C(=O)C=C4[C@@H]5C[C@@](C)(C(=O)O)CC[C@]5(C)CC[C@@]4(C)[C@]3(C)CC[C@@H]12 [β-CDODA, 2-cyano-3,11-dioxo-18β-oleana-1,12-dien-30-oic acid] | 2.5 to 5 | induced transactivation | 1 | 195 to 197 | – | – | – | induced luciferase activity after cotreatment with PPARγ antagonist T007 (PPARγ [4]; 1.0, 2.5, 5.0 β-CDODA-Me or 10, 20, 30 μM β-CDODA, 10 μM T007): inhibited; increase in luciferase activity (PPARγ activation) (PPARγ [4]; 20-30 μM): < 4.5 fold; transactivation of PPRE3-Luc (PPARγ [5]): induced transactivation; PPRE3-Luc transactivation after cotreatment with PPARγ antagonists T007 and GW9662 (PPARγ [5]; 10 μM antagonist): inhibited; concentration at which KLF4 is induced (SW480 cells; SW480, 24 hr): 10 to 20 µM; PARP cleavage (SW480 cells; SW480, 24 hr, 10-40 μM): observed
CC1(C)C(=O)C=C[C@]2(C)[C@H]3C(=O)C=C4[C@@H]5C[C@@](C)(C(=O)O)CC[C@]5(C)CC[C@@]4(C)[C@]3(C)CC[C@@H]12 [β-DODA, 3,11-Dioxo-18β-oleana-1,12-dien-30-oic acid] | 25 | minimal activity | 20 to 30 | 270 to 275 | did not enhance transactivation | > 15 | – | –
COC(=O)[C@@]1(C)CC[C@]2(C)CC[C@]3(C)C(=CC(=O)[C@@H]4[C@@]5(C)C=CC(=O)C(C)(C)[C@@H]5CC[C@]43C)[C@@H]2C1 [β-DODA-Me, Methyl 3,11-dioxo-18β-oleana-1,12-dien-30-oate] | 10 | minimal activity | 5 to 10 | 192 to 194 | did not enhance transactivation | 10 to 15 | did not activate PPARγ | –
Methyl 2-iodo-3,11-dioxo-18β-oleana-1,12-diene-30-oate [β-IDODA-Me] | – | – | – | – | – | – | did not activate PPARγ | –
